Results as given in PMC3598812, “Evaluation of Anti-Hyperalgesic and Analgesic Effects of Two Benzodiazepines in Human Experimental Pain: A Randomized Placebo-Controlled Study” (PLoS ONE, 2013).
Several values for one entry are separate records, joined by “and”; a condition that tells them apart may be missing. Equal entries are not always repeated. Entries after “also recorded” stand apart in the source; their conditions may differ.

Tests used:
healthy male volunteers [1] = experiment: Area of static hyperalgesia after intradermal capsaicin injection (512 mN von Frey hair); format: in vivo, human; conditions: for Change in the area of static hyperalgesia over time: main analysis, pairwise multiple comparisons within each drug; for Area of static hyperalgesia: single oral dose (clobazam 20 mg, clonazepam 1 mg, tolterodine 1 mg), mean (SD); for Change in the area of static hyperalgesia between 60 min and the measurement after flumazenil: subgroup analysis (n = 8), pairwise comparisons within each drug
Source text: Intradermal injection of capsaicin causes a brief stinging/burning pain at the injection site followed by development of secondary hyperalgesia, i.e. hyperalgesia detected at surrounding (not injected) skin [15], [16]. Secondary hyperalgesia after intradermal capsaicin is the result of sensitization of the central nervous system, which is one of the most relevant aspects of neuroplastic changes. This model was sensitive to the action of GABAergic compounds in animal studies.
The capsaicin solution was prepared by the Hospital Pharmacy and underwent sterile filtration into sterile septum-sealed vials. The sterile solution (1 mg/ml) was placed into sterile syringes and used for intradermal injection at room temperature. The skin temperature was measured using a digital thermometer, and was 32°C+/−1 in all subjects.
Subjects remained semi-supine during the experiment. Before capsaicin injection, the skin of the forearm was cleaned using an antiseptic wipe and allowed to air dry. The injection site was marked midway between the elbow and the wrist. Using a surgical skin marker, 4 lines were drawn through the injection site, so that they intersected the corners of a regular octagon (figure 2). These lines were marked every 0.5 cm from the center to the edges using a predefined grid. […] We determined the area of hyperalgesia by adding the areas of each triangle in which hyperalgesia was recorded.
Using a 1-ml tuberculin syringe fitted with a 27-gauge disposable needle, 100 µl capsaicin were injected […] into the skin, at the intersection of the 4 vectors previously drawn. A white skin elevation appeared during injection ensuring correct injection.
Static mechanical hyperalgesia was judged to be present when the subjects reported that applying a 512 mN von Frey Hair, 5 and 30 minutes after capsaicin injection, elicited pain with an intensity of at least 4 using a numerical rating scale (NRS, whereby 0 = no pain and 10 = worst pain). Only these subjects were included in the study. In order to document pain induction, the subject recorded pain intensity at injection and 5 minutes post-injection using a 10 cm visual analogue pain scale (VAS), whereby 0 = no pain and 10 = worst pain imaginable.
The area of secondary hyperalgesia was assessed using a calibrated 512 mN von Frey hair. The punctuated probe was moved along the 8 radial lines defined above, starting approximately 6 cm away from the site of injection, at each mark in steps of 0.5 cm. The weighted von Frey hair was placed gently on the skin and the load was applied for 2 seconds. The volunteers were asked to report when the pricking sensation changed to a pain sensation. At least 4 seconds elapsed between consecutive stimuli. This procedure was repeated for each vector. The number corresponding to the marker at which sensation changes as described above was noted and the individual numbers were used to calculate the area of hyperalgesia.
The flow of the experiment is illustrated in figure 3. After training, basal values for the pain tests were determined. The study medication was given immediately after the intradermal injection of capsaicin. Thus, basal values were recorded for all tests, except for those related to capsaicin injection. Because of the relatively short duration of hyperalgesia induced by capsaicin, the recordings of basal values before drug administration would yield a too short testing procedure.

healthy male volunteers [2] = experiment: Pressure pain detection and tolerance thresholds (pressure algometer, 2nd toe); format: in vivo, human; conditions: mean (SD)
Experimental: Pain detection and tolerance thresholds were measured with an electronic pressure algometer (Somedic, Hörby, Sweden) applied at the center of the pulp of the 2nd toe. […] The pressure was increased from 0 at a rate of 30 kPa/s to a maximum pressure of 1200 kPa. Pain detection threshold was defined as the point at which the pressure sensation turned to pain. Pain tolerance threshold was defined as the point at which the subject felt the pain as intolerable. If the threshold was not reached at 1200 kPa, this value was considered as threshold. Three assessments were made and the mean of these 3 measurements were used for the data analysis.

healthy male volunteers [3] = experiment: Conditioned pain modulation (cold pressor test and pressure algometry); format: in vivo, human; conditions: difference in pressure pain detection threshold after vs before cold pressor test, mean (SD)
Source text: This method explores the endogenous modulation of nociceptive input. Under normal conditions, pain after application of a “test” nociceptive stimulus is attenuated by the application of an additional conditioning noxious stimulus to a remote body region, reflecting diffuse endogenous inhibition, [20]. In the present study, pressure pain detection threshold and cold pressure test (see below) were used as test and conditioning stimuli, respectively. An increase in pressure pain detection threshold immediately after cold pressure test was an indication of CPM.
The subjects placed their hand into a container filled with ice water. In order to maximize heterotopic stimulation, the hand contralateral to the side of pressure stimulation was used. The water was regularly mixed to maintain the temperature near to 0°C. The temperature of the water near the hand was monitored by a thermometer with a digital display (±0.1°C). The subjects were asked to keep the hand in the water until they felt an intolerable sensation of pain and were forced to remove the hand from the container, with a maximum time of 2 min.
Pressure pain detection threshold was measured again at the same time as the subject was withdrawing the hand from the water (one single measurement). CPM was measured as the difference in pressure pain detection threshold between measurements after and before the cold pressure test.

healthy male volunteers [4] = experiment: Cutaneous repeated (20 stimuli) electrical stimulation, VAS; format: in vivo, human; parameters: AUC of VAS during 20 cutaneous electrical stimuli: unit not given beside the values; conditions: mean (SD); for Maximal VAS during 20 cutaneous electrical stimuli: VAS 0-10
Experimental: The stimulus burst used for single stimulus was repeated for a train of 20 pulses at 2 Hz, at an intensity corresponding to the temporal summation threshold. During this 10 s stimulation, pain intensity was continuously rated by the subject with an electronic VAS, and the area under the curve (AUC) was computed. Additionally, the maximal VAS during stimulation was recorded.

healthy male volunteers [5] = experiment: Psychomotor performance, digit symbol substitution test (DSST); conditions: for DSST-score: single oral dose (clobazam 20 mg, clonazepam 1 mg, tolterodine 1 mg), mean (SD)
Experimental: The psychomotor performance was assessed by the digit symbol substitution test (DSST), a subscale of the Wechsler Adult Intelligence Scale. The DSST evaluates the ability to concentrate and modifications in processing information [23]. It is a two-minute paper-and-pencil test. The subject was asked to replace digits with corresponding symbols according to a code given on the same sheet of paper. The score consists in the total number and the correct number of symbols drawn.
Pressure pain, conditioned pain modulation (CPM), intramuscular electrical pain tests, cuff algometry and DSST were performed 120 min after drug intake.
After 15 min, the whole battery of tests was performed.

[6] = trial protocol; ref Micromedex 2009; cited from earlier work
[7] = baseline before medication, per drug session
[8] = single oral dose (clobazam 20 mg, clonazepam 1 mg, tolterodine 1 mg), 120 min after medication
[9] = single oral dose (clobazam 20 mg, clonazepam 1 mg, tolterodine 1 mg), after flumazenil 0.2 mg iv
[10] = single oral dose (clobazam 20 mg, clonazepam 1 mg, tolterodine 1 mg), 30 min after medication
[11] = single oral dose (clobazam 20 mg, clonazepam 1 mg, tolterodine 1 mg), 60 min after medication
[12] = single oral dose (clobazam 20 mg, clonazepam 1 mg, tolterodine 1 mg), 90 min after medication

Structure (SMILES)	Change in the area of static hyperalgesia over time (healthy male volunteers [1])	Area of static hyperalgesia (healthy male volunteers [1]; 30 min after medication)	Area of static hyperalgesia (healthy male volunteers [1]; 60 min after medication)	Area of static hyperalgesia (healthy male volunteers [1]; 90 min after medication)	Area of static hyperalgesia (healthy male volunteers [1]; 120 min after medication)	Area of static hyperalgesia (healthy male volunteers [1]; after flumazenil 0.2 mg iv)	Pressure pain detection threshold (healthy male volunteers [2]; [7])	Pressure pain tolerance threshold (healthy male volunteers [2]; [7])	Pressure pain detection threshold (healthy male volunteers [2]; [8])	Pressure pain detection threshold (healthy male volunteers [2]; [9])	Pressure pain tolerance threshold (healthy male volunteers [2]; [9])	Conditioned pain modulation (healthy male volunteers [3]; [7])	Conditioned pain modulation (healthy male volunteers [3]; [8])	Conditioned pain modulation (healthy male volunteers [3]; [9])	Maximal VAS during 20 cutaneous electrical stimuli (healthy male volunteers [4]; [7])	Maximal VAS during 20 cutaneous electrical stimuli (healthy male volunteers [4]; [10])	Maximal VAS during 20 cutaneous electrical stimuli (healthy male volunteers [4]; [11])	Maximal VAS during 20 cutaneous electrical stimuli (healthy male volunteers [4]; [12])	Maximal VAS during 20 cutaneous electrical stimuli (healthy male volunteers [4]; [8])	Maximal VAS during 20 cutaneous electrical stimuli (healthy male volunteers [4]; [9])	further results
O=C1CN=C(c2ccccc2Cl)c2cc([N+](=O)[O-])ccc2N1 [Clonazepam]	no statistically significant increase	37.9 (13.6) cm^2	45.6 (15.3) cm^2	43.4 (14.3) cm^2	41.9 (11.6) cm^2	39.4 (12.3) cm^2	416 (80) kPa	685 (172) kPa and 749 (242) kPa	383 (100) kPa	389 (112) kPa	390.8 (199) kPa and 734.7 (279) kPa	70 (113) kPa	85 (77) kPa	74 (86) kPa	4.9 (1.6)	5.4 (2.0)	5.0 (2.3)	4.7 (2.1)	4.4 (1.6)	4.2 (1.6)	Change in the area of static hyperalgesia between 60 min and the measurement after flumazenil (healthy male volunteers [1]): Decrease in the area of hyperalgesia after Clonazepam; Change in the area of static hyperalgesia between 60 min and the measurement after flumazenil (healthy male volunteers [1]; listed as clonazepam): significantly decreases; Pressure pain tolerance threshold (healthy male volunteers [2]; [8]): 636 (147) kPa and 712 (262) kPa; AUC of VAS during 20 cutaneous electrical stimuli (healthy male volunteers [4]; [7]): 359 (144); AUC of VAS during 20 cutaneous electrical stimuli (healthy male volunteers [4]; [10]): 352 (131); AUC of VAS during 20 cutaneous electrical stimuli (healthy male volunteers [4]; [11]): 349 (185); AUC of VAS during 20 cutaneous electrical stimuli (healthy male volunteers [4]; [12]): 351 (141); AUC of VAS during 20 cutaneous electrical stimuli (healthy male volunteers [4]; [8]): 344 (148); AUC of VAS during 20 cutaneous electrical stimuli (healthy male volunteers [4]; [9]): 322 (137); DSST score compared with tolterodine at 120 min (healthy male volunteers [5]; main analysis, pairwise comparison within the time-points): significantly associated to a lower score; DSST-score (healthy male volunteers [5]; 120 min after drug administration): 69.3 (15.8); DSST-score (healthy male volunteers [5]; after flumazenil 0.2 mg iv): 79.1 (14.5); Psychomotor performance (DSST) at 120 minutes compared with the other two drugs (healthy male volunteers [5]; subgroup analysis (n = 8), pairwise multiple comparison): lower psychomotor performance; Change of DSST score after flumazenil injection (healthy male volunteers [5]; subgroup analysis (n = 8), within drug): significantly increased
Cc1ccc(O)c([C@H](CCN(C(C)C)C(C)C)c2ccccc2)c1 [Tolterodine]	significantly increased; also recorded: Significant increase in the area of hyperalgesia only for tolterodine	36.3 (10.6) cm^2	40.6 (11.5) cm^2	43.8 (11.9) cm^2	44.7 (10.9) cm^2	47.6 (13.7) cm^2	403 (118) kPa	674 (221) kPa	371 (88) kPa	382 (118) kPa	685.0 (203) kPa	68 (100) kPa	72 (114) kPa	77 (79) kPa	4.7 (1.5)	5.1 (1.6)	4.8 (1.8)	4.9 (1.8)	4.6 (1.8)	4.7 (1.6)	AUC of VAS during 20 cutaneous electrical stimuli (healthy male volunteers [4]; [7]): 379 (155); AUC of VAS during 20 cutaneous electrical stimuli (healthy male volunteers [4]; [10]): 382 (134); AUC of VAS during 20 cutaneous electrical stimuli (healthy male volunteers [4]; [11]): 362 (155); AUC of VAS during 20 cutaneous electrical stimuli (healthy male volunteers [4]; [12]): 336 (143); AUC of VAS during 20 cutaneous electrical stimuli (healthy male volunteers [4]; [8]): 328 (144); AUC of VAS during 20 cutaneous electrical stimuli (healthy male volunteers [4]; [9]): 326 (136); Oral bioavailability [6]: 77%
